Measurements reported in article PMC9436958, “The synthesis of novel thioderivative chalcones and their influence on NF-κB, STAT3 and NRF2 signaling pathways in colorectal cancer cells” (Scientific Reports, 2022).

Key:
AKT = test system: AKT; parameters: method as in BinidngDB; conditions: inhibitor of PDB ID 4GV1; ref BinidngDB; cited from earlier work
EGFR [1] = test system: EGFR; parameters: method as in BinidngDB; conditions: inhibitor of PDB ID 5UGB; ref BinidngDB; cited from earlier work
HCT116 cells = experiment: MTT viability assay, HCT116 cells; type: cell-based; conditions: Homo sapiens, HCT-116, range 0.5–100 µM, read-out: IC50, cytotoxicity
Method: (§1) The DLD-1 and HCT116 colorectal carcinoma cell lines were purchased from ECACC. The HaCaT cell line of spontaneously immortalized keratinocytes was purchased from Cell Lines Service (Germany). The cells were cultured in Dulbecco’s Modified Eagle’s Medium (DMEM, Sigma-Aldrich, USA) with the addition of 10% FBS (EURx, Poland) and 1% antibiotic solution (penicillin and streptomycin) (Sigma-Aldrich, USA) at 37 °C in an atmosphere with 95% humidity and 5% CO2.
(§2) The effect of the tested compounds on the viability of DLD-1, HCT116 and HaCaT cells was assessed by the MTT assay according to the standard protocol.

DLD-1 cells = experiment: MTT viability assay, DLD-1 cells; type: cell-based; conditions: Homo sapiens, range 0.5–100 µM, read-out: IC50, cytotoxicity
Method: as §1, §2

NF-κB p65 [2] = experiment: Transcription factor ELISA, NF-κB p65 binding to DNA; type: cell-based; conditions: DLD-1 cells (context); 1, 4 at 1 μM; 2, 8 at 5 μM; vs control
Method: (§3) To estimate NF-ΚB (p50 and p65 subunits) STAT3 and Nrf2 activation, enzymatic immunoassays with the Transcription Factor ELISA Kit (TransAM™NF-κB, TransAM™STAT3/TransAM™Nrf2, Active Motif, Carlsbad CA, USA) were used following the manufacturer’s protocol. Briefly, proper consensus-site double-strand oligonucleotides (NF-κB—5′-GGGACTTTCC-3′; STAT3-5’—TTCCCGGAA-3’; Nrf2-5ʹ—[…]-3ʹ) were immobilized on an ELISA plate and incubated for one hour with the nuclear extracts. The activated subunits bound to DNA were recognized with a specific primary antibody and detected with an HRP-conjugated secondary antibody. The number of subunits was determined by spectrophotometry at λ = 450 nm. The number of p50, and p65 subunits, STAT3, as well as the amount of Nrf2 contained in the DNA-binding complex, corresponded to the activated NF-κB, STAT3, or Nrf2 transcription factors.

Nrf2 = experiment: Transcription factor ELISA, Nrf2 binding to DNA; type: cell-based
Method: as §3

[3] = MTT viability assay, normal HaCaT cells; type: cell-based; conditions: HaCaT cells (spontaneously immortalized keratinocytes), normal human HaCaT cells, read-out: IC50, cytotoxicity
Method: as §1, §2

COX-2 = COX-2 expression (qRT-PCR mRNA, Western blot protein); type: cell-based; conditions: 4 at 1 μM; for COX-2 transcription: DLD-1 cells, 3, 6 at 5 μM
Method: (§4) Cytosolic and nuclear extracts were prepared using a Nuclear/Cytosol Fractionation Kit (BioVision Research, USA). Cytosolic extracts (for NF-κBp65, NF-κBp50, COX-2, iNOS, STAT3, c-Myc, Bcl-xl, Nrf2, SOD, GSTP, EGFR, Akt, p-Akt, Keap1, IKKα/β and β-actin) or nuclear extracts (for NF-κBp65, NF-κBp50, STAT3, p-STAT3, Nrf2, p-Nrf2 and lamin) were separated on 7.5%, 10% or 12% SDS–PAGE slab gels. Then, the proteins were transferred to a nitrocellulose Immobilon-P membrane. After blocking for 2 h with 10% skimmed milk, proteins were incubated with primary antibodies against NF-κBp65, NF-κBp50, COX-2, iNOS, STAT3, p-STAT3, c-Myc, Bcl-xl, Nrf2, p-Nrf2, SOD, GSTP, EGFR, Akt, p-Akt, Keap1, IKKα/β, β-actin, and lamin. Alkaline phosphatase (AP)-labeled anti-rabbit IgG, anti-goat IgG, and anti-mouse IgG secondary antibodies (Bio-Rad Laboratories, USA), as well as horseradish peroxidase (HRP)-conjugated anti-mouse IgG (Boster Bio, USA) secondary antibodies were used in the staining reaction. Bands were visualized by the AP Conjugate Substrate Kit NBT/BCIP or the chemiluminescent HRP substrate of the Clarity ECL Kit (Bio–Rad Laboratories, USA). The amount of immunoreactive product in each lane was determined using a ChemiDoc Imaging System (Bio–Rad Laboratories, USA). Values were calculated as relative absorbance units (RQ) per mg of protein and expressed as a percentage of the control.
(§5) Total RNA from cells was isolated with the GeneMatrix Universal DNA/RNA/Protein Purification Kit (EurX, Poland). For the qRT-PCR analyses, the Maxima SYBR Green I/ROX qPCR Master Mix (2×) (Thermo Fisher Scientific, USA) and the thermal cycler LightCycler (Roche, Germany) were used. The protocol started with 5 min of enzyme activation at 95 °C, followed by 40–50 cycles at 95 °C for 15 s, 56 °C for 20 s, 72 °C for 40 s, and final elongation at 72 °C for 5 min. Melting curve analysis was used for amplicon verification. The expression levels of TATA-box-binding protein (TBP) and porphobilinogen deaminase (PBGD) were used to normalize the data. The Pfaffl comparative method was used to calculate fold change. Primers were designed using Beacon Designer software (the sequences of primers used to analyze genes are listed in Table 2 of the supplementary materials).

Bcl-xl = Bcl-xl expression (qRT-PCR mRNA, Western blot protein); type: cell-based; conditions: DLD-1 cells; 2 at 5 μM
Method: as §4, §5

NF-κB p65 [4] = experiment: qRT-PCR, NF-κB p65 mRNA; type: cell-based; conditions: for inhibitory effect on p65 subunit transcription: DLD-1 cells, 5 μM
Method: as §5

STAT3 [5] = experiment: Western blot, STAT3 protein level; type: cell-based; conditions: DLD-1 cells; 2 at 5 μM, 4 at 1 μM
Method: as §4

EGFR [6] = experiment: Western blot, EGFR protein in cytosolic fraction; type: cell-based; conditions: DLD-1 cells; 2, 5 at 5 μM, 4 at 1 μM
Method: as §4

p-Akt = experiment: Western blot, p-Akt (Ser 473) protein in cytosolic fraction; type: cell-based; conditions: 2, 5 at 5 μM, 4 at 1 μM
Method: as §4

c-Myc = c-Myc expression (qRT-PCR mRNA, Western blot protein); type: cell-based; conditions: DLD-1 cells; 2 at 5 μM
Method: as §4, with “control. […]” for “control.”

STAT3 [7] = experiment: Transcription factor ELISA, STAT3 binding to DNA; type: cell-based; conditions: 2, 5 at 5 μM, 4 at 1 μM
Method: as §3

STAT3 [8] = experiment: qRT-PCR, STAT3 mRNA; type: cell-based; conditions: DLD-1 cells; 2, 5 at 5 μM, 4 at 1 μM
Method: as §5

SOD = SOD expression (qRT-PCR mRNA, Western blot protein); type: cell-based; conditions: HCT116 cells; 5 μM
Method: as §4
as §5, with “Primers were designed using Beacon Designer software (the sequences of primers used to analyze genes are listed in Table 2 of the supplementary materials).” left out

p-Nrf2 = experiment: Western blot, p-Nrf2 protein in nuclear fraction; type: cell-based; conditions: HCT116 line; 5 μM
Method: as §4

NF-κB p50 = experiment: Transcription factor ELISA, NF-κB p50 binding to DNA; type: cell-based; conditions: DLD-1 cells; 1, 4 at 1 μM; 2, 3, 5-8 at 5 μM; in relation to the control group
Method: as §3

[9] = DLD-1 cells, 1 at 1 μM, 3, 5, 7, 8 at 5 μM
[10] = HCT116 cells, 4 at 1 μM, 2, 5, 6, 7 at 5 μM

Compound | IC50 (HCT116 cells) [µM] | IC50 (DLD-1 cells) [µM] | reduction of the binding of the p65 subunit to DNA (NF-κB p65 [2]) [%] | Nrf2 binding to a specific nucleotide sequence (ELISA) (Nrf2; [9]) | IC50 [3] [µM] | Nrf2 binding to a specific nucleotide sequence (ELISA) (Nrf2; [10]) | further results
NC1(C(=O)N[C@@H](CCO)c2ccc(Cl)cc2)CCN(c2ncnc3[nH]ccc23)CC1 [AZD5363] |  |  |  |  |  |  | IC50 (AKT): 0.0042 µM
COc1ccc(/C=C/C(=O)c2cc(OC)c(OC)c(OC)c2)cc1SC [chalcone 1] | 19 | 3 | 21 | statistically significant increase | 4 |  | 
COc1cc(/C=C/C(=O)c2cc(Br)c(OC)c(OC)c2)ccc1SC [chalcone 2] | 18 | 11 | 24 |  | 13 | statistically significant increase | COX-2 expression, protein level (COX-2; HCT116 cells, 2 at 5 μM): reduction of COX-2 expression; COX-2 expression, transcript level (COX-2; HCT116 cells, 2 at 5 μM): reduction of COX-2 expression; Bcl-xl protein level (Bcl-xl): reduced level of the Bcl-xl protein; decrease in the level of Bcl-xl mRNA (Bcl-xl): 25%; inhibitory effect on p65 subunit transcription (NF-κB p65 [4]): most potent inhibitory effect; decrease in the nuclear level of STAT3 protein (STAT3 [5]): 22%; level of EGFR (EGFR [6]): significantly decreased the level of EGFR; phosphorylation of p-Akt (Ser 473) (p-Akt; DLD-1 cells): significantly reduced phosphorylation of p-Akt; phosphorylation of p-Akt (Ser 473) (p-Akt; HCT116 cells): significantly reduced phosphorylation of p-Akt; c-Myc expression (c-Myc): decreased c-Myc expression; binding of STAT3 to DNA (STAT3 [7]; HCT116 cells): decreased the binding of STAT3 to DNA; decrease in the binding of STAT3 to DNA (STAT3 [7]; nuclear fraction of DLD-1 cells): 25%; STAT3 gene expression (mRNA) (STAT3 [8]): decreased
COc1ccc(/C=C/C(=O)c2cc(Br)c(OC)c(OC)c2)cc1SC [chalcone 3] | 17 | 8 |  | statistically significant increase | 9 |  | COX-2 transcription (COX-2): statistically significant reduction
COc1ccc(/C=C/C(=O)c2cc(Br)c(SC)c(OC)c2)cc1SC [chalcone 6] | 21 | 12 |  |  | 13 | statistically significant increase | levels of SOD mRNA and protein (SOD): increased levels of SOD mRNA and protein; COX-2 transcription (COX-2): statistically significant reduction; increase in the nuclear level of p-Nrf2 (p-Nrf2): 52%
COc1cc(C(=O)/C=C/c2ccc(SC)cc2)cc(Br)c1SC [chalcone 7] | 19 | 43 |  | statistically significant increase | 27 | statistically significant increase | levels of SOD mRNA and protein (SOD): increased levels of SOD mRNA and protein; increase in the nuclear level of p-Nrf2 (p-Nrf2): 80%; inhibitory effect on p65 subunit transcription (NF-κB p65 [4]): most potent inhibitory effect; decrease of p50 binding to the 5'-GGGACTTTCC-3' target sequence (NF-κB p50): 41%
COc1ccc(/C=C/C(=O)c2cc(OC)c(SC)c(OC)c2)cc1SC [chalcone 8] | 19 | 9 | 38 | statistically significant increase | 17 |  | decrease of p65 transcription (NF-κB p65 [4]; HCT116 cells, 8 at 5 μM, compared to the control group): 30%
